Laboratory results as given in patent publication US20220040086A1, “FORMULATION AND AEROSOL CANISTERS, INHALERS, AND THE LIKE CONTAINING THE FORMULATION” (KINDEVA DRUG DELIVERY L.P., priority 2018, published 2022).

Tests used:
[1] = general statement
From the text: The two formulations were examined by microscope after 2 and 4 weeks storage at ambient temperature and humidity. Each vial was sprayed onto a microscope slide via a standard 3M MK6 actuator.

[2] = Differential scanning calorimetry thermogram; type: physicochemical; conditions: DSC thermogram
From the text: Ipratropium, in particular ipratropium bromide, is commercially available as a hydrate, and more particularly as the monohydrate. Dehydration of hydrated ipratropium, in particular ipratropium bromide monohydrate, can be achieved by any suitable method. […] A particularly suitable method is heating the particulate ipratropium, in particular ipratropium bromide monohydrate, in a drying oven for a period of time. The drying oven can be heated to a temperature high enough to remove the water. […] Useful oven temperatures at ambient pressure include at least 100° C., at least 110° C., at least 120° C., at least 125° C., no greater than 240° C., no greater than 230° C., no greater than 225° C., between 100° C. and 240° C., between 110° C. and 230° C., between 120° C. and 220° C., between 125° C. and 215° C., or more particularly about 125° C. The use of pressures less than ambient pressure, such as in a vacuum oven, can be useful in reducing the temperature for dehydration. The time necessary to dehydrate the particulate ipratropium, in particular ipratropium bromide monohydrate, is the amount of time it takes to remove the desired amount of water from the particulate ipratropium. If the amount of water in a sample of particulate ipratropium is known, complete dehydration is complete when the mass of the remaining ipratropium is essentially anhydrous ipratropium. […]

[3] = 50 mg in 2 g Malvern dispersant (lecithin in isooctane), sonicated 3 minutes
[4] = 30 mg in 30 mL 2H,3H-decafluoropentane, sonic probe 1 minute
Protocol: 30 mg of the resulting anhydrous ipratropium bromide was added to a glass sample jar followed by 30 mL of 2H,3H-decafluoropentane.

[5] = Rehydration of anhydrous ipratropium bromide (sample weight over time); type: physicochemical
Protocol: The weight of the powder after heating was 9.563 g. The sample was weighed every 10 minutes for 90 minutes and then left over the weekend at 24° C. and 30% humidity.
The sample was then placed in a desiccator for 24 hours and weighed again.

For CC(C)[N+]1(C)[C@@H]2CC[C@H]1CC(OC(=O)C(CO)c1ccccc1)C2.[Br-] (stereo partly shown) [anhydrous micronized ipratropium bromide], the “stability when formulated in a HFA propellant” value [1] was “stable”.

For CC(C)[N+]1(C)[C@@H]2CC[C@H]1C[C@@H](OC(=O)C(CO)c1ccccc1)C2.O.[Br-] (stereo partly shown) [ipratropium bromide monohydrate], the degradation temperature [2] was “approximately 240 °C” and the “water loss starting temperature” value [2] was “approximately 100 °C”.

In the case of CC(C)[N+]1(C)[C@@H]2CC[C@H]1C[C@@H](OC(=O)C(CO)c1ccccc1)C2.O.[Br-] (stereo partly shown) [micronized ipratropium bromide monohydrate], the “agglomerates under a microscope” value [3] is reported as “essentially free of agglomerates”, the dispersion appearance [3] is reported as “dispersed satisfactorily” and the “agglomeration observed with magnifying glass (x10)” value [4] is reported as “not”.

For CC(C)[N+]1(C)[C@@H]2CC[C@H]1CC(OC(=O)C(CO)c1ccccc1)C2.[Br-] (stereo partly shown) [anhydrous ipratropium bromide], the Sample weight ([5]; 10 mins) was 9.597 g, the Sample weight ([5]; 20 mins) was 9.600 g and the Sample weight ([5]; 30 mins) was 9.601 g. The Sample weight ([5]; 40 mins) was 9.602 g, the Sample weight ([5]; 50 mins) was 9.603 g and the Sample weight ([5]; 60 mins) was 9.603 g. The Sample weight ([5]; 70 mins) was 9.602 g, the Sample weight ([5]; 80 mins) was 9.602 g and the Sample weight ([5]; 90 mins) was 9.603 g. The Sample weight ([5]; 2.5 days at 24° C. and 30% humidity) was 9.606 g, the “weight decrease relative to unmicronized ipratropium bromide monohydrate starting material” value ([5]; after 2.5 days at 24° C. and 30% humidity (9.606 g)) was 3.94% and the Sample weight ([5]; after a further 24 hours in a desiccator) was 9.568 g. For the same compound, the “weight loss relative to unmicronized ipratropium bromide monohydrate starting material” value ([5]; after a further 24 hours in a desiccator (9.568 g)) was 4.14%, the “agglomerates under a microscope” value [3] was “essentially free of agglomerates” and the dispersion appearance [3] was “dispersed satisfactorily”. For the same compound, the “agglomeration observed with magnifying glass (x10)” value [4] was “significant agglomeration”.
